# In patent US10844058B2, “Valbenazine salts and polymorphs thereof” (Neurocrine Biosciences, Inc., priority 2015, dated 2020):
# Structures can show the parent of a compound that is named as a salt. Where two headings read alike, the source gives them in different places.
# Key:
# Assay type in all cases: physicochemical
# [1] = Gravimetric vapour sorption (GVS); conditions: for Stability to humidity GVS uptake: 25° C.; for XRPD pattern following the adsorption/desorption analysis: after GVS
# Protocol: The Gravimetric sorption isotherms were obtained using a Hiden IGASorp moisture sorption analyser, controlled by CFRSorp software. The sample temperature was maintained at 25° C. by a Huber re-circulating water bath. The humidity was controlled by mixing streams of dry and wet nitrogen, with a total flow rate of 250 ml/min. The relative humidity (RH) was measured by a calibrated Vaisala RH probe (dynamic range of 0-95% RH), located near the sample. The weight change, (mass relaxation) of the sample as a function of % RH was constantly monitored by the microbalance (accuracy 0.001 mg). Typically 10-20 mg of sample was placed in a tared mesh stainless steel basket at room temperature. The sample was loaded and unloaded at 40% RH and 25° C. (typical room conditions). The standard isotherm was performed at 25° C. at 10% RH intervals over a 0-90% RH range.
# [2] = Form conversion on heating (VT-XRPD)
# From the text: It is not clear whether a form change accompanies this loss of water, as the water is readily taken back up when the sample is returned to ambient RH.
# [3] = Thermodynamic aqueous solubility; conditions: for solubility at 24 h: water, 25 °C, thermodynamic from solid
# Protocol: The suspension was equilibrated at 25° C. for 24 hours then the pH was measured. The suspension was then filtered through a glass fibre C filter. […] Different volumes of the standard, diluted and undiluted sample solutions were injected.
# [4] = Stability to humidity on storage (form by XRPD)
# [5] = Phase equilibration between Form I, II and IV of Formula I (Example 12); conditions: slurried 13 days
# Protocol: About 10 mg of the mixture was then slurried in 200 μl of pre-saturated solvent at the desired temperatures for 13 days. The solids were then quickly filtered and analyzed by XRPD.
# [6] = Phase equilibration between Form I and IV of Formula I (Example 13)
# Protocol: The suspensions of Form and IV from the equilibration studies were taken to 25° C.
# [7] = relative humidity from about 0% to about 90%
# [8] = relative humidity from about 0% to about 95%, di(4-methylbenzenesulfonate)
structure (smiles),measurement,setting,value
Br [hydrobromide],Stability to humidity GVS uptake,[1],>3.9%
"COc1cc2c(cc1OC)[C@H]1C[C@@H](OC(=O)[C@@H](N)C(C)C)[C@H](CC(C)C)CN1CC2 [Form II of Formula II, (S)-(2R,3R,11bR)-3-isobutyl-9,10-dimethoxy-2,3,4,6,7,11b-hexahydro-1H-pyrido[2,1-a]isoquinolin-2-yl 2-amino-3-methylbutanoate dihydrochloride]",GVS mass loss,[1]; RH lowered to 0%,ca. 12%
same,Form conversion on heating (VT-XRPD),[2]; heating,no conversion to Form I on heating
same,Temperature at which the material becomes amorphous (VT-XRPD),[2]; no subsequent crystallization upon cooling,above 160 °C
same,Aqueous solubility,"[3]; at pH 4.1, dihydrochloride",> 67 mg/mL free form equivalent
"COc1cc2c(cc1OC)[C@H]1C[C@@H](OC(=O)[C@@H](N)C(C)C)[C@H](CC(C)C)CN1CC2 [Form I of Formula II, (S)-(2R,3R,11bR)-3-isobutyl-9,10-dimethoxy-2,3,4,6,7,11b-hexahydro-1H-pyrido[2,1-a]isoquinolin-2-yl 2-amino-3-methylbutanoate dihydrochloride]",Stability to humidity GVS uptake,[1],15.2%
same,XRPD pattern following the adsorption/desorption analysis,[1]; dihydrochloride,substantially changed
same,GVS mass increase,[1]; [7],about 14%
same,Form after storage,[4]; 25° C./92% RH for seven days,change of form
same,Form after storage,[4]; 40° C./75% RH for seven days,change of form
same,solubility at 24 h,"[3]; pH 4.1, water, at pH 4.1, read-out: Aqueous solubility",> 90 mg/mL
same,solubility at 24 h,"[3]; 25° C., 24 hours, at the pH of the next column, read-out: Aqueous solubility mg/mL free form",> 90 mg/mL
"COc1cc2c(cc1OC)[C@H]1C[C@@H](OC(=O)[C@@H](N)C(C)C)[C@H](CC(C)C)CN1CC2.Cc1ccc(S(=O)(=O)O)cc1.Cc1ccc(S(=O)(=O)O)cc1 [Form V, (S)-(2R,3R,11bR)-3-isobutyl-9,10-dimethoxy-2,3,4,6,7,11b-hexahydro-1H-pyrido[2,1-a]isoquinolin-2-yl 2-amino-3-methylbutanoate di(4-methylbenzenesulfonate)]",XRPD pattern following the adsorption/desorption analysis,[1]; di(4-methylbenzenesulfonate),substantially unchanged
same,GVS mass lost,[1]; relative humidity decreased between about 20 and 0% RH,1.2%
same,GVS mass increase,[1]; relative humidity from about 10% to about 95%,about 1%
same,Form conversion upon heating,[2]; heating between about 110° C. and about 140° C.,converts to Form VI
"COc1cc2c(cc1OC)[C@H]1C[C@@H](OC(=O)[C@@H](N)C(C)C)[C@H](CC(C)C)CN1CC2.Cc1ccc(S(=O)(=O)O)cc1.Cc1ccc(S(=O)(=O)O)cc1 [Form II, (S)-(2R,3R,11bR)-3-isobutyl-9,10-dimethoxy-2,3,4,6,7,11b-hexahydro-1H-pyrido[2,1-a]isoquinolin-2-yl 2-amino-3-methylbutanoate di(4-methylbenzenesulfonate)]",Hygroscopicity,[1]; GVS,substantially non-hygroscopic
same,Stability with respect to humidity,[1]; GVS,stable with respect to humidity
same,XRPD pattern following the adsorption/desorption analysis,[1]; di(4-methylbenzenesulfonate),substantially unchanged
same,GVS mass increase,[1]; [8],about 0.5%
same,solubility at 24 h,"[3]; pH 5.1, water, at pH 5.1, read-out: aqueous solubility",~18.5 mg/mL
"COc1cc2c(cc1OC)C1CC(OC(=O)C(N)C(C)C)C(CC(C)C)CN1CC2.Cc1ccc(S(=O)(=O)O)cc1.Cc1ccc(S(=O)(=O)O)cc1 (stereo not drawn) [Form I, II, and IV]",Form found by XRPD after equilibration,"[5]; Acetonitrile/2% water, 25° C.",Form I
same,Form found by XRPD after equilibration,"[5]; Acetonitrile/2% water, 50° C.",Form I
same,Form found by XRPD after equilibration,"[5]; Acetonitrile/5% water, 5° C.",Form IV
same,Form found by XRPD after equilibration,"[5]; Acetonitrile/5% water, 25° C.",Form I
same,Form found by XRPD after equilibration,"[5]; Acetonitrile/5% water, 50° C.",Form I
same,Form found by XRPD after equilibration,"[5]; Acetonitrile/10% water, 5° C.",Form IV
same,Form found by XRPD after equilibration,"[5]; Acetonitrile/10% water, 25° C.",Form I
same,Form found by XRPD after equilibration,"[5]; Acetonitrile/10% water, 50° C.",Form I
same,Form found by XRPD after equilibration,"[5]; Acetonitrile, 5° C.",Form I
same,Form found by XRPD after equilibration,"[5]; Acetonitrile, 25° C.",Form I
same,Form found by XRPD after equilibration,"[5]; Acetonitrile, 50° C.",Form I
COc1cc2c(cc1OC)C1CC(OC(=O)C(N)C(C)C)C(CC(C)C)CN1CC2.O=C(O)C(=O)O.O=C(O)C(=O)O (stereo not drawn) [oxalate],Stability to humidity GVS uptake,[1],0.8%
same,Stability to humidity 25° C./92% RH,[4]; 25° C./92% RH,unchanged
same,Stability to humidity 40° C./75% RH,[4]; 40° C./75% RH,unchanged
"COc1cc2c(cc1OC)[C@H]1C[C@@H](OC(=O)[C@@H](N)C(C)C)[C@H](CC(C)C)CN1CC2.Cc1ccc(S(=O)(=O)O)cc1.Cc1ccc(S(=O)(=O)O)cc1 [Form IV, (S)-(2R,3R,11bR)-3-isobutyl-9,10-dimethoxy-2,3,4,6,7,11b-hexahydro-1H-pyrido[2,1-a]isoquinolin-2-yl 2-amino-3-methylbutanoate di(4-methylbenzenesulfonate)]",Stability with respect to humidity,[1]; GVS,stable with respect to humidity
same,XRPD pattern following the adsorption/desorption analysis,[1]; di(4-methylbenzenesulfonate),substantially unchanged
same,GVS mass lost,[1]; relative humidity decreased between about 40 and 0% RH,1.8%
same,GVS mass increase,[1]; [8],about 3.4%
same,GVS mass increase,[1]; relative humidity from about 40% to about 95%,about 1.6%
same,Form conversion in suspension,"[6]; 25° C., overnight stirring",did not convert
same,Form conversion in suspension,[6]; heated to 30° C. for 2 days,conversion to Form I was then complete
same,Form conversion upon re-slurry,[6]; re-slurry at room temperature in acetonitrile,converts to Form I
same,Form conversion upon heating,[2]; heating at about 230° C.,converts to Form I
"COc1cc2c(cc1OC)[C@H]1C[C@@H](OC(=O)[C@@H](N)C(C)C)[C@H](CC(C)C)CN1CC2.Cc1ccc(S(=O)(=O)O)cc1.Cc1ccc(S(=O)(=O)O)cc1 [Form VI, (S)-(2R,3R,11bR)-3-isobutyl-9,10-dimethoxy-2,3,4,6,7,11b-hexahydro-1H-pyrido[2,1-a]isoquinolin-2-yl 2-amino-3-methylbutanoate di(4-methylbenzenesulfonate)]",Form conversion upon exposure to gravimetric vapour sorption analysis,[1],converts to Form V
same,XRPD pattern following the adsorption/desorption analysis,[1]; di(4-methylbenzenesulfonate),substantially changed
same,GVS mass lost,[1]; relative humidity decreased between about 15% and 0% RH,2.0%
same,GVS mass lost,[1]; relative humidity decreased between about 90% and 15% RH,1.2%
same,GVS mass increase,[1]; [7],about 3.1%
same,GVS mass increase,[1]; relative humidity from about 40% to about 80%,about 0.5%
same,GVS mass increase,[1]; relative humidity from about 80% to about 90%,about 3.1%
